Laboratory results published in ChEMBL document CHEMBL1201862, “PubChem BioAssay data set” (2004).
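Where inhibition never reached the appropriate level, the endpoint shown equals the highest concentration tested. Otherwise, values were interpolated linearly from a five-concentration, 48-hour dose response in 96-well plates. Abbreviation: GI50, concentration required for 50% inhibition of growth.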 Calls of active or inactive are those of the source. Cut-off read from the data, not from the text of the source: active = GI50 up to about 1.1 µM and inactive = higher.

Assays:
Experiment in all cases: NCI tumour cell line growth inhibition, 48 h
M14 = system: M14
SF-268 = system: SF-268
NCI/ADR-RES = system: NCI/ADR-RES
MDA-MB-435 = system: MDA-MB-435
EKVX = system: EKVX
KM12 = system: KM12
786-0 = system: 786-0
SK-OV-3 = system: SK-OV-3
UACC-257 = system: UACC-257
SF-295 = system: SF-295
RPMI-8226 = system: RPMI-8226
HCT-116 = system: HCT-116
ACHN = system: ACHN
OVCAR-8 = system: OVCAR-8
SK-MEL-28 = system: SK-MEL-28
HT-29 = system: HT-29
Malme-3M = system: Malme-3M
SNB-19 = system: SNB-19
MDA-MB-231 = system: MDA-MB-231
OVCAR-4 = system: OVCAR-4
SF-539 = system: SF-539
OVCAR-5 = system: OVCAR-5
HCT-15 = system: HCT-15
SW-620 = system: SW-620
COLO 205 = system: COLO 205
UO-31 = system: UO-31
SN12C = system: SN12C
OVCAR-3 = system: OVCAR-3
A498 = system: A498
HOP-92 = system: HOP-92
BT-549 = system: BT-549
DU-145 = system: DU-145
SK-MEL-5 = system: SK-MEL-5
K562 = system: K562
TK-10 = system: TK-10
U-251 = system: U-251
SR = system: SR
T47D = system: T47D
LOX IMVI = system: LOX IMVI
NCI-H522 = system: NCI-H522
NCI-H23 = system: NCI-H23
A549 = system: A549
SK-MEL-2 = system: SK-MEL-2
CCRF-CEM = system: CCRF-CEM
NCI-H226 = system: NCI-H226
MCF7 = system: MCF7
NCI-H460 = system: NCI-H460
UACC-62 = system: UACC-62
SNB-75 = system: SNB-75
CAKI-1 = system: CAKI-1
Hs-578T = system: Hs-578T
HOP-62 = system: HOP-62
MDA-N = system: MDA-N
RXF 393 = system: RXF 393
IGROV-1 = system: IGROV-1
PC-3 = system: PC-3
MOLT-4 = system: MOLT-4
HL-60 = system: HL-60

For Cc1cc(Cl)nc2ccc(Cc3ccc4nc(Cl)cc(C)c4c3)cc12, the GI50 (M14) was 85.3 µM (inactive), the GI50 (SF-268) was 43.2 µM (inactive) and the GI50 (NCI/ADR-RES) was 33.5 µM (inactive). For the same molecule, the GI50 (MDA-MB-435) was 65.2 µM (inactive), the GI50 (EKVX) was 44.3 µM (inactive) and the GI50 (KM12) was > 100 µM (inactive). The GI50 (786-0) was 12.2 µM (inactive), the GI50 (SK-OV-3) was 14 µM (inactive) and the GI50 (UACC-257) was 27 µM (inactive). For the same molecule, the GI50 (SF-295) was 22 µM (inactive), the GI50 (RPMI-8226) was 36.6 µM (inactive) and the GI50 (HCT-116) was 22.8 µM (inactive). The GI50 (ACHN) was 16 µM (inactive), the GI50 (OVCAR-8) was 28.6 µM (inactive) and the GI50 (SK-MEL-28) was > 100 µM (inactive). For the same molecule, the GI50 (HT-29) was 68.5 µM (inactive), the GI50 (Malme-3M) was 21.8 µM (inactive) and the GI50 (SNB-19) was 32.4 µM (inactive). For the same molecule, the GI50 (MDA-MB-231) was 17.1 µM (inactive), the GI50 (OVCAR-4) was 34.8 µM (inactive) and the GI50 (SF-539) was 12.6 µM (inactive). For the same molecule, the GI50 (OVCAR-5) was > 100 µM (inactive), the GI50 (HCT-15) was 49.3 µM and the GI50 (SW-620) was > 100 µM (inactive). The GI50 (COLO 205) was > 100 µM (inactive), the GI50 (UO-31) was 37.6 µM (inactive) and the GI50 (SN12C) was 85.1 µM (inactive). The GI50 (OVCAR-3) was 39.3 µM (inactive), the GI50 (A498) was 21 µM (inactive) and the GI50 (HOP-92) was 43.1 µM (inactive). For the same molecule, the GI50 (BT-549) was 42.2 µM (inactive), the GI50 (DU-145) was > 100 µM (inactive) and the GI50 (SK-MEL-5) was 23.8 µM (inactive). For the same molecule, the GI50 (K562) was > 100 µM (inactive), the GI50 (TK-10) was 20.7 µM (inactive) and the GI50 (U-251) was 16.2 µM (inactive). For the same molecule, the GI50 (SR) was 85.3 µM (inactive), the GI50 (T47D) was 6.25 µM (inactive) and the GI50 (LOX IMVI) was 56.5 µM (inactive). The GI50 (NCI-H522) was 24.2 µM (inactive), the GI50 (NCI-H23) was 44.6 µM (inactive) and the GI50 (A549) was 47.5 µM (inactive). For the same molecule, the GI50 (SK-MEL-2) was 47.5 µM (inactive), the GI50 (CCRF-CEM) was > 100 µM (inactive) and the GI50 (NCI-H226) was 93.3 µM (inactive). The GI50 (MCF7) was 19.1 µM (inactive), the GI50 (NCI-H460) was 41.5 µM (inactive) and the GI50 (UACC-62) was 51.6 µM (inactive). The GI50 (SNB-75) was 3.3 µM (inactive), the GI50 (CAKI-1) was 39.8 µM (inactive) and the GI50 (Hs-578T) was 36.3 µM (inactive). For the same molecule, the GI50 (HOP-62) was 18.5 µM (inactive), the GI50 (MDA-N) was 47.3 µM (inactive) and the GI50 (RXF 393) was 11 µM (inactive). For the same molecule, the GI50 (IGROV-1) was 31.7 µM (inactive), the GI50 (PC-3) was 42.7 µM (inactive) and the GI50 (MOLT-4) was > 100 µM (inactive).

In the case of C/C(=C/CC[C@](C)(OC1OC(CO)C(O)C(O)C1OC1OC(C)C(O)C(O)C1O)[C@H]1CC[C@]2(C)[C@@H]1CC[C@@H]1[C@@]3(C)CC[C@H](O)C(C)(C)[C@@H]3C[C@H](O)[C@]12C)CO (stereo not given in full), the GI50 (M14) is reported as > 100 µM (inactive), the GI50 (SF-268) is reported as > 100 µM (inactive) and the GI50 (NCI/ADR-RES) is reported as > 100 µM (inactive). For the same molecule, the GI50 (MDA-MB-435) was > 100 µM (inactive), the GI50 (EKVX) was > 100 µM (inactive) and the GI50 (KM12) was > 100 µM (inactive). The GI50 (786-0) was > 100 µM (inactive), the GI50 (SK-OV-3) was > 100 µM (inactive) and the GI50 (UACC-257) was > 100 µM (inactive). For the same molecule, the GI50 (SF-295) was > 100 µM (inactive), the GI50 (RPMI-8226) was > 100 µM (inactive) and the GI50 (HCT-116) was > 100 µM (inactive). The GI50 (ACHN) was > 100 µM (inactive), the GI50 (OVCAR-8) was > 100 µM (inactive) and the GI50 (SK-MEL-28) was > 100 µM (inactive). For the same molecule, the GI50 (HT-29) was > 100 µM (inactive), the GI50 (Malme-3M) was > 100 µM (inactive) and the GI50 (SNB-19) was > 100 µM (inactive). The GI50 (MDA-MB-231) was > 100 µM (inactive), the GI50 (OVCAR-4) was > 100 µM (inactive) and the GI50 (SF-539) was > 100 µM (inactive). For the same molecule, the GI50 (OVCAR-5) was > 100 µM (inactive), the GI50 (HCT-15) was > 10 µM and the GI50 (SW-620) was > 100 µM (inactive). The GI50 (COLO 205) was > 100 µM (inactive), the GI50 (UO-31) was > 100 µM (inactive) and the GI50 (SN12C) was > 100 µM (inactive). For the same molecule, the GI50 (OVCAR-3) was > 100 µM (inactive), the GI50 (A498) was > 100 µM (inactive) and the GI50 (HOP-92) was > 100 µM (inactive). For the same molecule, the GI50 (BT-549) was > 100 µM (inactive), the GI50 (DU-145) was > 100 µM (inactive) and the GI50 (SK-MEL-5) was > 100 µM (inactive). The GI50 (K562) was > 100 µM (inactive), the GI50 (TK-10) was > 100 µM (inactive) and the GI50 (U-251) was > 100 µM (inactive). For the same molecule, the GI50 (SR) was > 100 µM (inactive), the GI50 (T47D) was > 100 µM (inactive) and the GI50 (LOX IMVI) was > 100 µM (inactive). The GI50 (NCI-H522) was > 100 µM (inactive), the GI50 (NCI-H23) was > 100 µM (inactive) and the GI50 (A549) was > 100 µM (inactive). For the same molecule, the GI50 (CCRF-CEM) was > 100 µM (inactive), the GI50 (NCI-H226) was > 100 µM (inactive) and the GI50 (MCF7) was > 100 µM (inactive). For the same molecule, the GI50 (HL-60) was > 100 µM (inactive), the GI50 (NCI-H460) was > 100 µM (inactive) and the GI50 (UACC-62) was > 100 µM (inactive). The GI50 (SNB-75) was > 100 µM (inactive), the GI50 (CAKI-1) was > 100 µM (inactive) and the GI50 (Hs-578T) was > 100 µM (inactive). The GI50 (HOP-62) was > 100 µM (inactive), the GI50 (MDA-N) was > 100 µM (inactive) and the GI50 (RXF 393) was > 100 µM (inactive). The GI50 (IGROV-1) was > 100 µM (inactive), the GI50 (PC-3) was > 100 µM (inactive) and the GI50 (MOLT-4) was > 100 µM (inactive).

In the case of Cc1c2c(n3c(nc4ccccc43)c1C#N)NCC2, the GI50 (M14) is reported as > 10 µM (inactive), the GI50 (SF-268) is reported as > 10 µM (inactive) and the GI50 (NCI/ADR-RES) is reported as > 10 µM (inactive). For the same molecule, the GI50 (MDA-MB-435) was > 10 µM (inactive), the GI50 (EKVX) was > 10 µM (inactive) and the GI50 (KM12) was > 10 µM (inactive). For the same molecule, the GI50 (786-0) was > 10 µM (inactive), the GI50 (SK-OV-3) was > 10 µM (inactive) and the GI50 (UACC-257) was > 10 µM (inactive). The GI50 (SF-295) was > 10 µM (inactive), the GI50 (RPMI-8226) was > 10 µM (inactive) and the GI50 (HCT-116) was > 10 µM (inactive). The GI50 (ACHN) was > 10 µM (inactive), the GI50 (OVCAR-8) was > 10 µM (inactive) and the GI50 (SK-MEL-28) was > 10 µM (inactive). For the same molecule, the GI50 (HT-29) was > 10 µM (inactive), the GI50 (Malme-3M) was > 10 µM (inactive) and the GI50 (SNB-19) was > 10 µM (inactive). For the same molecule, the GI50 (MDA-MB-231) was > 10 µM (inactive), the GI50 (OVCAR-4) was > 10 µM (inactive) and the GI50 (SF-539) was > 10 µM (inactive). The GI50 (OVCAR-5) was > 10 µM (inactive), the GI50 (HCT-15) was > 10 µM and the GI50 (SW-620) was > 10 µM (inactive). For the same molecule, the GI50 (COLO 205) was > 10 µM (inactive), the GI50 (UO-31) was > 10 µM (inactive) and the GI50 (SN12C) was > 10 µM (inactive). For the same molecule, the GI50 (OVCAR-3) was > 10 µM (inactive), the GI50 (A498) was > 10 µM (inactive) and the GI50 (HOP-92) was > 10 µM (inactive). The GI50 (BT-549) was > 10 µM (inactive), the GI50 (DU-145) was > 10 µM (inactive) and the GI50 (SK-MEL-5) was > 10 µM (inactive). The GI50 (K562) was > 10 µM (inactive), the GI50 (TK-10) was > 10 µM (inactive) and the GI50 (U-251) was > 10 µM (inactive). The GI50 (SR) was > 10 µM (inactive), the GI50 (T47D) was > 10 µM (inactive) and the GI50 (LOX IMVI) was > 10 µM (inactive). The GI50 (NCI-H23) was > 10 µM (inactive), the GI50 (A549) was > 10 µM (inactive) and the GI50 (CCRF-CEM) was > 10 µM (inactive). For the same molecule, the GI50 (NCI-H226) was > 10 µM (inactive), the GI50 (MCF7) was > 10 µM (inactive) and the GI50 (HL-60) was > 10 µM (inactive). For the same molecule, the GI50 (NCI-H460) was > 10 µM (inactive), the GI50 (UACC-62) was > 10 µM (inactive) and the GI50 (SNB-75) was > 10 µM (inactive). For the same molecule, the GI50 (CAKI-1) was > 10 µM (inactive), the GI50 (Hs-578T) was > 10 µM (inactive) and the GI50 (HOP-62) was > 10 µM (inactive). For the same molecule, the GI50 (MDA-N) was > 10 µM (inactive), the GI50 (RXF 393) was > 10 µM (inactive) and the GI50 (IGROV-1) was > 10 µM (inactive). For the same molecule, the GI50 (PC-3) was > 10 µM (inactive) and the GI50 (MOLT-4) was > 10 µM (inactive).
